Test results reported in EP0600950B1, “AMIDE TETRAZOLE ACAT INHIBITORS” (priority 1991, dated 1993).

Each compound was assayed against acyl-CoA: cholesterol acyltransferase (ACAT) (assay: in vitro ACAT inhibition, rabbit intestinal microsomes (IAI)). Conditions: radiolabeled cholesterol oleate formed from radiolabeled oleic acid.
Format: biochemical
Excerpt: The test assesses the ability of a test compound to inhibit the acylation of cholesterol by oleic acid by measuring the amount of radiolabeled cholesterol oleate formed from radiolabeled oleic acid in a tissue preparation containing rabbit intestinal microsomes (designated IAI) or from rat liver microsomes (designated LAI).

Row | SMILES | IC50 [nM]
1 | CCCCCCCCCCCCn1nnc(C(C(=O)Nc2c(OC)cc(OC)cc2OC)c2ccccc2)n1 (racemic) [Example 13, (±) 2-Dodecyl-α-phenyl-N-(2,4,6-trimethoxyphenyl)-2H-tetrazole-5-acetamide] | 9
2 | CCCCCCCCCCCCn1nnc(C(C(=O)Nc2c(C(C)C)cccc2C(C)C)c2ccccc2)n1 (racemic) [Example 15, (±)-N-[2,6-bis(1-methylethyl)phenyl]-2-dodecyl-α-phenyl-2H-tetrazole-5-acetamide] | 8
3 | CCCCCCCCCCCCn1nnc(C(C(=O)Nc2cnc3c(C)cc(C)cc3c2-c2ccccc2Cl)c2ccccc2)n1 (racemic) [Example 18, (±)-N-[4-(2-chlorophenyl)-6,8-dimethyl-3-quinolinyl]-2-dodecyl-α-phenyl-2H-tetrazole-5-acetamide] | 28
4 | CCCCCCCCCCCCn1nnnc1C(C(=O)Nc1ccc(F)cc1F)c1ccccc1 (racemic) [Example 25, (±)-N-(2,4-Difluorophenyl)-1-dodecyl-α-phenyl-1H-tetrazole-5-acetamide] | 800
5 | CCCCCCCCCCCCn1nnnc1C(C(=O)Nc1c(C(C)C)cccc1C(C)C)c1ccccc1 (racemic) [Example 26, (±)-N-[2,6-Bis(1-methylethyl)phenyl]-1-dodecyl-α-phenyl-1H-tetrazole-5-acetamide] | 79
6 | CCCCCCCCn1nnc(C(C(=O)Nc2c(OC)cc(OC)cc2OC)c2ccccc2)n1 (racemic) [Example 31, (±)-2-Octyl-α-phenyl-N-(2,4,6-trimethoxyphenyl)-2H-tetrazole-5-acetamide] | 270
7 | CCCCCCCCCCCCCCCCn1nnc(C(C(=O)Nc2c(OC)cc(OC)cc2OC)c2ccccc2)n1 (racemic) [Example 32, (±) 2-Hexadecyl-α-phenyl-N-(2,4,6-trimethoxyphenyl)-2H-tetrazole-5-acetamide] | 53
8 | CCCCCCCCCCCCn1nnc(C(C)(C(=O)Nc2c(OC)cc(OC)cc2OC)c2ccccc2)n1 (racemic) [Example 44, (±)-2-Dodecyl-α-methyl-α-phenyl-N-(2,4,6-trimethoxyphenyl)-2H-tetrazole-5-acetamide] | 29
9 | CCCCCCCCCCCCn1nnc(C(C(=O)Nc2c(OC)cc(OC)cc2OC)c2ccc(N(C)C)cc2)n1 (racemic) [Example 51, (±)-α-[4-dimethylamino)phenyl]-2-dodecyl-N-(2,4,6-trimethoxy-phenyl)-2H-tetrazole-5-acetamide] | 660
10 | CCCCCCCCCCCCn1nnc(C(C(=O)Nc2c(OC)cc(OC)cc2OC)c2ccc(F)cc2)n1 (racemic) [Example 52, (±)-2-Dodecyl-α-(4-fluorophenyl)-N-(2,4,6-trimethoxyphenyl)-2H-tetrazole-5-acetamide] | 36
11 | CCCCCCCCCCCCn1nnc(C(C(=O)Nc2c(OC)cc(OC)cc2OC)c2ccc3ccccc3c2)n1 (racemic) [Example 53, (±)-2-Dodecyl-α-2-naphthalenyl-N-(2,4,6-trimethoxyphenyl)-2H-tetrazole-5-acetamide] | 97
12 | CCCCCCCCCCCCn1nnc(C(C(=O)Nc2c(OC)cc(OC)cc2OC)c2ccc(-c3ccccc3)cc2)n1 (racemic) [Example 54, (±)-α-([1,1'-biphenyl]-4-yl)-2-dodecyl-N-(2,4,6-trimethoxy-phenyl)-2H-tetrazole-5-acetamide] | 220
13 | CCCCCCCCCCCCn1nnc(C(Cc2ccccc2)C(=O)Nc2c(OC)cc(OC)cc2OC)n1 (racemic) [Example 59, (±)-2-Dodecyl-α-(phenylmethyl)-N-(2,4,6-trimethoxyphenyl)-2H-tetrazole-5-acetamide] | 49
14 | CCCCCCCCCCCCn1nnc(C(C(=O)Nc2c(OC)cc(OC)cc2OC)C2CCCCC2)n1 (racemic) [Example 60, (±)-2-Dodecyl-α-(cyclohexyl)-N-(2,4,6-trimethoxy-phenyl)-2H-tetrazole-5-acetamide] | 28
15 | CCCCCCCCCCCCn1nnc(C(C(=O)Nc2c(OC)cc(OC)cc2OC)c2ccccc2)n1 (single isomer, unassigned; (+)) [Example 62, (+)-2-Dodecyl-α-phenyl-N-(2,4,6-trimethoxy-phenyl)-2H-tetrazole-5-acetamide] | 14
16 | CCCCCCCCCCCCn1nnc(C(C(=O)Nc2c(OC)cc(OC)cc2OC)c2ccccc2)n1 (single isomer, unassigned; (-)) [Example 61, (-)-2-Dodecyl-α-phenyl-N-(2,4,6-trimethoxy-phenyl)-2H-tetrazole-5-acetamide] | 310
17 | CCCCCCCCCCCCn1nnc(C(C)(C)C(=O)Nc2c(OC)cc(OC)cc2OC)n1 [Example 27, 2-Dodecyl-α,α-dimethyl-N-(2,4,6-trimethoxyphenyl)-2H-tetrazole-5-acetamide] | 14
18 | C=CCC(CC=C)(C(=O)Nc1c(OC)cc(OC)cc1OC)c1nnn(CCCCCCCCCCCC)n1 [Example 28, 2-Dodecyl-α,α'-(2-propenyl)-N-(2,4,6-trimethoxyphenyl)-2H-tetrazole-5-acetamide] | 18
19 | CCCCCCCCCCCCn1nnc(C2(C(=O)Nc3c(OC)cc(OC)cc3OC)CCCC2)n1 [Example 29, 1-(2-Dodecyl-2H-tetrazol-5-yl)-N-(2,4,6-trimethoxyphenyl)cyclopentanecarboxamide] | 10

Results, then the compound that gave them:

Row | IC50 [nM] | SMILES
20 | 91 | CCCCCCCCCCCCn1nnc(C(C(=O)Nc2ccccc2)c2ccccc2)n1 (racemic) [Example 14, (±)-2-dodecyl-N,α-diphenyl-2H-tetrazole-5-acetamide]
21 | 8 | CCCCCCCCCCCCn1nnc(C(C(=O)Nc2c(OC)ncnc2OC)c2ccccc2)n1 (racemic) [Example 16, (±)-N-(4,6-dimethoxy-5-pyrimidinyl)-2-dodecyl-α-phenyl-2H-tetrazole-5-acetamide]
22 | 190 | CCCCCCCCCCCCn1nnc(C(C(=O)Nc2ccc3c(C)cc(C)nc3n2)c2ccccc2)n1 (racemic) [Example 17, (±)-N-(5,7-dimethyl-1,8-naphthyridine-2-yl)-2-dodecyl-α-phenyl-2H-tetrazole-5-acetamide]
23 | 14 | CCCCCCCCCCCCn1nnc(C(C(=O)Nc2c(C)nn(C)c2C)c2ccccc2)n1 (racemic) [Example 19, (±)-2-dodecyl-α-phenyl-N-(1,3,5-trimethyl-1H-pyrazol-4-yl)-2H-tetrazole-5-acetamide]
24 | 47 | CCCCCCCCCCCCn1nnc(C(C(=O)NC2CC2)c2ccccc2)n1 (racemic) [Example 20, (±)-N-cyclopropyl-2-dodecyl-α-phenyl-2H-tetrazole-5-acetamide]
25 | 15 | CCCCCCCCCCCCn1nnc(C(C(=O)Nc2ccc(F)cc2F)c2ccccc2)n1 (racemic) [Example 21, (±)-N-(2,4-difluoro-phenyl)-2-dodecyl-α-phenyl-2H-tetrazole-5-acetamide]
26 | 91 | CCCCCCCCCCCCn1nnc(C(C(=O)Nc2ccccn2)c2ccccc2)n1 (racemic) [Example 22, (±)-2-dodecyl-α-phenyl-N-2-pyridinyl-2H-tetrazole-5-acetamide]
27 | 7.5 | CCCCCCCCCCCCn1nnc(C(C(=O)Nc2ncccc2C)c2ccccc2)n1 (racemic) [Example 23, (±)-2-dodecyl-N-(3-methyl-2-pyridinyl)-α-phenyl-2H-tetrazole-5-acetamide]
28 | 41 | CCCCCCCCCCCCn1nnc(C(C(=O)Nc2c(C)ccc[n+]2[O-])c2ccccc2)n1 (racemic) [Example 24, (±)-2-Dodecyl-N-(3-methyl-2-pyridinyl)-2-phenyl-2H-tetrazole-5-acetamide, N-oxide]
29 | 770 | CCCCCCCCCCCCn1nnc(C(C(=O)NC(C)(C)C)c2ccccc2)n1 (racemic) [Example 30, (±) N-(1,1-dimethylethyl)-2-dodecyl-α-phenyl-2H-tetrazole-5-acetamide]
30 | 26 | CCCCCCCCCCCCn1nnc(C(C(=O)Nc2c(C(C)C)cccc2C(C)C)c2ccccn2)n1 (racemic) [Example 55, (±)-N-[2,6-Bis(1-methylethyl)phenyl]-2-dodecyl-α-2-pyridinyl-2H-tetrazole-5-acetamide]
31 | 31 | CCCCCCCCCCCCn1nnc(C(C)C(=O)Nc2c(OC)cc(OC)cc2OC)n1 (racemic) [Example 58, (±)-2-Dodecyl-α-(methyl)-N-(2,4,6-trimethoxy-phenyl)-2H-tetrazole-5-acetamide]
32 | 3 | CCCCCCCCCCCCn1nnc(CC(=O)Nc2c(C(C)C)cccc2C(C)C)n1 [Example 1, N-[2,6-Bis(1-methylethyl)phenyl]-2-dodecyl-2H-tetrazole-5-acetamide]
33 | 92 | CCCCCCCCCCCCn1nnnc1CC(=O)Nc1c(C(C)C)cccc1C(C)C [Example 2, N-[2,6-Bis(1-methylethyl)phenyl]-1-dodecyl-1H-tetrazole-5-acetamide]
34 | 7 | CCCCCCCCCCCCn1nnc(CC(=O)Nc2c(OC)ncnc2OC)n1 [Example 3, N-(4,6-dimethoxy-5-pyrimidinyl)-2-dodecyl-2H-tetra-zole-5-acetamide]
35 | 10 | CCCCCCCCCCCCn1nnc(CC(=O)Nc2c(OC)cc(OC)cc2OC)n1 [Example 5, 2-dodecyl-N-(2,4,6-trimethoxyphenyl)-2H-tetrazole-5-acetamide]
36 | 120 | CCCCCCCCCCCCn1nnnc1CC(=O)Nc1c(OC)cc(OC)cc1OC [Example 6, 1-dodecyl-N-(2,4,6-trimethoxyphenyl)-1H-tetrazole-5-acetamide]
37 | 28 | CCCCCCCCCCCCn1nnc(CC(=O)Nc2ncccc2C)n1 [Example 7, 2-dodecyl-N-(3-methyl-2-pyridinyl)-2H-tetrazole-5-acetamide]
38 | 280 | CCCCCCCCCCCCn1nnc(CC(=O)Nc2ccc(F)cc2F)n1 [Example 9, N-(2,4-difluoro-phenyl)-2-dodecyl-2H-tetrazole-5-acetamide]
39 | 17 | CCCCCCCCCCCCn1nnc(CC(=O)Nc2c(C)nn(C)c2C)n1 [Example 11, 2-dodecyl-N-(1,3,5-trimethyl-1H-pyrazol-4-yl)-2H-tetrazole-5-acetamide]
40 | 17 | CCCCCCCCCCCCCn1nnc(C(C)(C)C(=O)Nc2c(OC)cc(OC)cc2OC)n1 [Example 33, 2-Tridecyl-α,α-dimethyl-N-(2,4,6-trimethoxyphenyl)-2H-tetrazole-5-acetamide]
